Among the test systems are U251 CNS; UO-31 renal; M14 melanoma; NCI-H23 lung; NCI-H226 lung; OVCAR-5 ovarian; CCRF-CEM leukemia; EKVX NSCLC; SNB-75 CNS; OVCAR-4 ovarian.
Holding throughout (assay): NCI anticancer screen, dose series, 48 h

The values below come from PubChem BioAssay (NCI).

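Interpolation was linear, between the two tested concentrations surrounding the appropriate level; five concentrations were tested over 48 hours in 96-well plates. GI50 is the concentration that inhibits growth by half. TGI: concentration producing complete growth inhibition.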

For `CCOC(=O)Cn1c(=O)n(C)c(=O)c2c1ncn2Cc1ccccc1`, the TGI in the assay on U251 CNS, in the assay on UO-31 renal, with M14 melanoma, in the assay on NCI-H23 lung, with NCI-H226 lung and in the assay with OVCAR-5 ovarian was > 100 µM throughout. For the same molecule, the TGI in the assay on CCRF-CEM leukemia, in the assay with EKVX NSCLC and with SNB-75 CNS was > 100 µM each time.
Consider `C/C(CCn1[nH]c(=O)ccc1=O)=N\OCCCc1ccccc1`, for which the TGI with UO-31 renal, with OVCAR-4 ovarian, in the assay with M14 melanoma, with NCI-H23 lung, with NCI-H226 lung and with OVCAR-5 ovarian was > 100 µM in each case. The TGI with CCRF-CEM leukemia, with EKVX NSCLC and in the assay on SNB-75 CNS was > 100 µM in each case.
For `C[C@]12CC[C@@H]3c4ccc(O)c([N+](=O)[O-])c4CC[C@H]3[C@@H]1CC[C@@H]2NS(=O)(=O)c1cccc(Br)c1`, the GI50 is 1.9 µM in the assay with U251 CNS; 2.19 µM with UO-31 renal; 1.47 µM in the assay on OVCAR-4 ovarian; 1.91 µM in the assay with M14 melanoma; 2 µM with NCI-H23 lung; 2.9 µM with NCI-H226 lung. Besides, the GI50 with OVCAR-5 ovarian is 2.16 µM; in the assay on CCRF-CEM leukemia, 2.65 µM; in the assay with SNB-75 CNS, 1.19 µM. The TGI was 4.28 µM in the assay with U251 CNS; 5.63 µM in the assay with UO-31 renal; 2.94 µM with OVCAR-4 ovarian; 4.11 µM with M14 melanoma; 5.06 µM in the assay with NCI-H23 lung; 8.53 µM in the assay with NCI-H226 lung. Besides, the TGI with OVCAR-5 ovarian turned out to be 5.17 µM; in the assay with CCRF-CEM leukemia it was 10.4 µM; with SNB-75 CNS, 2.7 µM.
`COC(=O)CCC1=C(CC(=O)OC)C(C)=N/C1=C\c1[nH]c(-c2ccc[nH]2)cc1OC`: the GI50 in the assay on U251 CNS is 2.48 µM; in the assay on UO-31 renal, 3.44 µM; with M14 melanoma, 4.51 µM; with NCI-H23 lung, 4.42 µM; with NCI-H226 lung, 3.29 µM; in the assay with OVCAR-5 ovarian, 3.9 µM. Also, the values for the GI50 in the assay with CCRF-CEM leukemia, in the assay on EKVX NSCLC and with SNB-75 CNS were 1.68 µM, 5.61 µM and 4.9 µM, respectively. Besides, the TGI in the assay on U251 CNS was found to be 12.6 µM; with UO-31 renal, 14.7 µM; in the assay on M14 melanoma, 16.2 µM; in the assay with NCI-H23 lung, 21 µM; in the assay with NCI-H226 lung, 19.6 µM; with OVCAR-5 ovarian, 18.8 µM. Besides, the TGI in the assay on CCRF-CEM leukemia worked out at 29.8 µM; in the assay with EKVX NSCLC, 25.3 µM; in the assay on SNB-75 CNS it was 19.1 µM.
On to `Cc1nn(C(=O)c2ccc(Cl)cc2)c2c1C(c1ccc(O)cc1)SC(N)=N2` (stereo not drawn), for which the TGI in the assay with U251 CNS, in the assay with OVCAR-4 ovarian, with M14 melanoma, with NCI-H23 lung, in the assay on NCI-H226 lung and with OVCAR-5 ovarian was > 10 µM in each case. For the same molecule, the TGI in the assay with CCRF-CEM leukemia, in the assay with EKVX NSCLC and in the assay on SNB-75 CNS was > 10 µM throughout.
With `CC(C)(C)OC(=O)N1N=NC2C1C1CC(OCc3ccccc3)(OCc3ccccc3)C2O1` (stereo not drawn), the TGI with U251 CNS is > 100 µM; in the assay on UO-31 renal, > 100 µM; with OVCAR-4 ovarian, > 100 µM; in the assay on M14 melanoma, > 100 µM; in the assay on NCI-H23 lung, 49.2 µM; in the assay on NCI-H226 lung it was 55.4 µM. Further, the TGI is > 100 µM with OVCAR-5 ovarian, 63.5 µM with CCRF-CEM leukemia and > 100 µM in the assay with SNB-75 CNS.
For the molecule `N#Cc1ccc(OC(=O)Nc2ccc(Cl)c(Cl)c2)cc1`, the GI50 in the assay on U251 CNS was 3.04 µM; in the assay on UO-31 renal, 2.99 µM; with OVCAR-4 ovarian, 2.24 µM; in the assay on M14 melanoma, 4.3 µM; in the assay on NCI-H23 lung, 2.79 µM; with NCI-H226 lung, 3.8 µM. For the same molecule, the results for the GI50 with OVCAR-5 ovarian, with CCRF-CEM leukemia and in the assay with SNB-75 CNS were 5.79 µM, 3.08 µM and 2.78 µM, respectively. The TGI in the assay on U251 CNS is 23.2 µM; in the assay on UO-31 renal, 24.8 µM; in the assay on OVCAR-4 ovarian, 17.7 µM; in the assay on M14 melanoma, 59 µM; in the assay with NCI-H23 lung, 13.7 µM; in the assay with NCI-H226 lung, > 100 µM. For the same molecule, the TGI in the assay on OVCAR-5 ovarian is > 100 µM; in the assay with CCRF-CEM leukemia it was 16.1 µM; in the assay on SNB-75 CNS, 20.6 µM.
With `CCOC(CN(C)C(=S)Nc1cccc2ccccc12)OCC`, the TGI in the assay with U251 CNS, in the assay with UO-31 renal, with OVCAR-4 ovarian, in the assay on M14 melanoma, in the assay with NCI-H23 lung and in the assay with NCI-H226 lung was > 10 µM throughout. For the same molecule, the TGI with CCRF-CEM leukemia, with EKVX NSCLC and with SNB-75 CNS was > 10 µM each time.
As to `O=c1c2ccccc2nc(-c2ccccc2)n1NC(=S)Nc1ccccc1`, the TGI with U251 CNS, in the assay with UO-31 renal, in the assay on OVCAR-4 ovarian, in the assay with M14 melanoma, in the assay with NCI-H23 lung and in the assay with NCI-H226 lung was > 100 µM throughout. Moreover, the TGI in the assay with OVCAR-5 ovarian, with CCRF-CEM leukemia and in the assay with SNB-75 CNS was > 100 µM throughout.
